Data from US20140235776A1, “AMINOALCOHOL COMPOUNDS AND THEIR USE AS ZERO OR LOW VOC ADDITIVES FOR PAINTS AND COATINGS” (ANGUS CHEMICAL COMPANY, priority 2011, published 2014).
Where two headings read alike, the source gives them in different places.

What was measured:
Assay type in all cases: physicochemical
[1] = pH of paint formulation (digital pH meter); details: for pH: Zero VOC Flat Formulation, vinyl acrylic latex; for pH, 1 day 25° C.: Zero VOC Semi Gloss Formulation, acrylic latex
Procedure: pH, Low Shear and High Shear Viscosity.
The pH of each formulation is measured with a digital pH meter with a glass combination pH probe. Krebs-units (KU) viscosity is measured with Brookfield model KU viscometer with digital display (ASTM D562), at 25° C.

[2] = Krebs-units (KU) low shear viscosity of paint, ASTM D562
Procedure: (§1) The pH of each formulation is measured with a digital pH meter with a glass combination pH probe. Krebs-units (KU) viscosity is measured with Brookfield model KU viscometer with digital display (ASTM D562), at 25° C. The high shear (“ICI”) viscosity is measured according to ASTM D 4287 using a Brookfield CAP 1000+ viscometer at a shear rate of 12,000 s^−1 at 900 rpm, with a 0.45° cone of radius 1.511 cm, and a sample temperature controlled at 25° C.

[3] = High shear (ICI) viscosity of paint, ASTM D 4287; details: in P (unit assumed)
Procedure: as §1

[4] = Freeze-thaw cycles of paint samples, viscosity by Krebs Stormer Viscometer; details: for Viscosity after Freeze-Thaw cycles (KU), 2nd cycle / Viscosity after Freeze-Thaw cycles (KU), 3rd cycle / Viscosity after Freeze-Thaw cycles (KU), 4th cycle / Viscosity after Freeze-Thaw cycles (KU), 5th cycle / Viscosity after Freeze-Thaw cycles (KU), 1st cycle: additive 2 wt %; for Initial Viscosity (KU): additive 2 wt % post-add in paint of Table 8, before freeze-thaw; for Viscosity after Freeze-Thaw cycles (KU), 1st cycle: cycle = −18° C. 17 hours, 25° C. 7 hours; for freeze-thaw survival of paint sample (in words): added as post-add, 2 wt %
Procedure: Preparation of paint formulations containing compounds of the invention: The paint formulations are prepared using F/T agent 1 and 2 as shown by structures below. The octanol water partition coefficients are calculated for these compounds using the method of Moriguchi et al., Chem. Pharm. Bull. 40(1), 127-130 (1992). The calculated octanol-water partition coefficients for F/T-1 and F/T-2 are −2.59, and −3.99, respectively. […] Paint samples are frozen at −18° C. for 17 hours and then thawed at 25° C. for 7 hours. This constitutes 1 complete freeze-thaw cycle. Viscosities are measured after each freeze-thaw cycle using a Krebs Stormer Viscometer from Sheen at room temperature. The viscosity is measured in Krebs unit (KU). The results of freeze-thaw cycles on paint samples that contain zero-VOC compounds of the invention as post-adds are listed in the Table 9. The post-add compounds are mixed at 2 wt % in the paint samples. The same paint formulation is used in preparing all the samples. The paint sample without any post-add is designated as “Blank.”
The KU values below 150 as reported in Table 9 are considered acceptable, and all the values (other than that for the Blank) reported are considered very acceptable.

[5] = VOC testing according to ASTM D6886-rev (gas chromatography); details: neutralizer in a finished paint formulation, GC conditions of Table 2
Procedure: VOC properties are tested according to the ASTM D6886-rev method.

[6] = pKa of neutralizing amines
[7] = Zero VOC Semi Gloss Formulation
[8] = read-out: pKa (first value, pK1)
[9] = read-out: pKa (second value, pK2)

## CC(O)CNCCNCCN(CCNCC(C)O)CC(C)O (centres unmarked) [TETA 3PO, 7-(2-hydroxypropyl)-4,7,10,13-tetraazahexadecane-2,15-diol]
[1]
  pH: 8.51
  pH, 1 day 25° C.: 9.46
[2]; Zero VOC Flat Formulation
  KU Viscosity, 1 day 25° C.: 92.8 KU
[2]; [7]
  KU Viscosity, 1 day 25° C.: 85.9 KU
[3]; Zero VOC Flat Formulation
  ICI Viscosity, 1 day 25° C.: 1.29
[3]; [7]
  ICI Viscosity, 1 day 25° C.: 1.018

## CC(O)CO (centres unmarked) [Propylene Glycol, propylene glycol, reference compound]
[4]
  Viscosity after Freeze-Thaw cycles (KU), 2nd cycle: 103.2 KU
  Viscosity after Freeze-Thaw cycles (KU), 3rd cycle: 115.1 KU
  Viscosity after Freeze-Thaw cycles (KU), 4th cycle: 99.4 KU
  Viscosity after Freeze-Thaw cycles (KU), 5th cycle: 98.2 KU
  Initial Viscosity (KU): 89.8 KU
  Viscosity after Freeze-Thaw cycles (KU), 1st cycle: 101.3 KU

## OCC(O)CNCCN(CCNCC(O)CO)CC(O)CO (centres unmarked) [DETA Glyc, 3,3′-((((2,3-dihydroxypropyl)azanediyl)bis(ethane-2,1-diyl))bis(azanediyl))bis(propane-1,2-diol)]
[5]
  VOC contributed by neutralizers: 0%^2
[6]; [8]
  pKa: 8.9
[6]; [9]
  pKa: 4.6

## OCCOCCO [Diethylene Glycol, diethylene glycol, reference compound]
[4]
  Viscosity after Freeze-Thaw cycles (KU), 2nd cycle: 105.1 KU
  Viscosity after Freeze-Thaw cycles (KU), 3rd cycle: 106.9 KU
  Viscosity after Freeze-Thaw cycles (KU), 4th cycle: 100.6 KU
  Viscosity after Freeze-Thaw cycles (KU), 5th cycle: 98 KU
  Initial Viscosity (KU): 91.0 KU
  Viscosity after Freeze-Thaw cycles (KU), 1st cycle: 101.1 KU

## OCC(O)CNCCN(CCNCC(O)CO)CC(O)CO (centres unmarked) [F/T Agent 1, 3,3′-((((2,3-dihydroxypropyl)azanediyl)bis(ethane-2,1-diyl))bis(azanediyl))bis(propane-1,2-diol)]
[4]
  freeze-thaw survival of paint sample (in words): survive five freeze-thaw cycles
  Viscosity after Freeze-Thaw cycles (KU), 2nd cycle: 111.1 KU
  Viscosity after Freeze-Thaw cycles (KU), 3rd cycle: 112.7 KU
  Viscosity after Freeze-Thaw cycles (KU), 4th cycle: 111.8 KU
  Viscosity after Freeze-Thaw cycles (KU), 5th cycle: 109.5 KU
  Initial Viscosity (KU): 89.5 KU
  Viscosity after Freeze-Thaw cycles (KU), 1st cycle: 108 KU

## OCC(O)CN(CCN(CC(O)CO)CC(O)CO)CCN(CC(O)CO)CC(O)CO (centres unmarked) [F/T Agent 2, 3,3′,3″,3′′′-((((2,3-dihydroxypropyl)azanediyl)bis(ethane-2,1-diyl))bis(azanetriyl))tetrakis(propane-1,2-diol)]
[4]
  freeze-thaw survival of paint sample (in words): survive five freeze-thaw cycles
  Viscosity after Freeze-Thaw cycles (KU), 2nd cycle: 113.1 KU
  Viscosity after Freeze-Thaw cycles (KU), 3rd cycle: 114 KU
  Viscosity after Freeze-Thaw cycles (KU), 4th cycle: 121.7 KU
  Viscosity after Freeze-Thaw cycles (KU), 5th cycle: 116.3 KU
  Initial Viscosity (KU): 88.2 KU
  Viscosity after Freeze-Thaw cycles (KU), 1st cycle: 110.4 KU

## [Na+].[OH-] [NaOH, sodium hydroxide, reference compound]
[1]
  pH: 8.56
  pH, 1 day 25° C.: 9.47
[2]; Zero VOC Flat Formulation
  KU Viscosity, 1 day 25° C.: 86 KU
[2]; [7]
  KU Viscosity, 1 day 25° C.: 89.1 KU
[3]; Zero VOC Flat Formulation
  ICI Viscosity, 1 day 25° C.: 1.184
[3]; [7]
  ICI Viscosity, 1 day 25° C.: 1.059

## CC(C)(N)CNCCOCCOCCNCC(C)(C)N [EDBDA bis-AMP, N1,N1′-((ethane-1,2-diylbis(oxy))bis(ethane-2,1-diyl))bis(2-methylpropane-1,2-diamine), reference compound]
[5]
  VOC contributed by neutralizers: 0%^2
[6]; [8]
  pKa: 9.7
[6]; [9]
  pKa: 5.8

## CC(O)CNCCN(CCNCCN(CCNCC(C)O)CC(C)O)CC(C)O (centres unmarked) [TEPA 4PO, 7,13-bis(2-hydroxypropyl)-4,7,10,13,16-pentaazanonadecane-2,18-diol]
[5]
  VOC contributed by neutralizers: 0%^2
[6]; [8]
  pKa: 8.7
[6]; [9]
  pKa: 4.8
